Measurements from patent US20090227619A1, “Harmine derivatives, intermediates used in their preparations, preparation processes and use therefo” (priority 2003, published 2009).
Where two headings read alike, the source gives them in different places.

What was measured:
NIH3T3 = assay: In vitro cytotoxicity, IC50 by MTT method, NIH3T3; format: cell-based; conditions: Mus musculus
Description: (§1) Culture medium powder RPMI1640 was dissolved in a proper amount of tri-distilled water according to the instruction of the product. […] It was the basic culture solution. The complete culture solution was added with FBS having a final concentration of 10%, 100 U/ml penicillin and 100 µg/ml streptomycin. The solution was fully stirred by a magnetic blender, and the pH of the solution was adjusted to 6.8-7.0. The volume was kept constant. After being filtered and disinfected, the solution was kept into several containers which were sealed and stored at 4° C.
(§2) The cells were placed in a culture dish followed by the addition of complete culture liquid RPMI1640 and then cultured in a incubator comprising 5% CO2 at 37° C. In the exponential growth phase, the cells grew vigorously. If the culture liquid became yellow, the liquid should be replaced instantly.
(§3) The cells, at a concentration of 10^5/ml, were inoculated at a 96-pore culture plate. In each pore, 100 μl cells were inoculated. The cells were placed in a CO2 incubator until the cells were in the logarithmic growth phase. The samples to be tested were added according to the preset concentration gradient. For each gradient, the test was conducted at least three times. An equivalent amount of solvent for dissolving the samples was added in the control group. After 48 h of culture, each pore was added 20 μl MTT (5 mg/ml). The cells were cultured at 37° C. for 4 h. After the supernatant was carefully removed, 100 μl DMSO was added in each pore. The plate was agitated for about 10 minutes such that the precipitates were dissolved. After that, OD value was identified with a Microplate Reader at the wavelength of 490 nm. The survival rate of the cells at various concentrations was calculated according to the following formula:
(§4) Survival rate %=average OD value of the sample group/average OD value of the control group×100%
(§5) Plots of log survival rate of the cells vs. concentration of the medicament were constructed, and the IC50 value of each sample was calculated according to graphing methods.

BGC-823 = assay: In vitro cytotoxicity, IC50 by MTT method, BGC-823; format: cell-based; conditions: Homo sapiens, BGC-823
Description: as §1, §2, §3, §4, §5

Hela = assay: In vitro cytotoxicity, IC50 by MTT method, Hela; format: cell-based; conditions: Homo sapiens
Description: as §1, §2, §3, §4, §5

Lewis lung cancer = conditions: for Anti-tumor activity compared with harmine (compound 1): Lewis lung cancer in mice, among 22 compounds tested; for Body weight of the animals, end, First time / Body weight of the animals, beginning, First time / Inhibition rate, First time / Weight of the tumor X ± SD, First time / Inhibition rate (%) Lewis cancer: Lewis lung cancer; for Body weight of the animals, end, First time: ip × 10qd; for Inhibition rate (%) Lewis cancer: comparison table 43, in vivo;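 for all read-outs here: mice implanted subcutaneously in the axilla with Lewis lung tumor cells, treated starting the following day, killed roughly three weeks after implantation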
Description: There was one group of 8 to 10 mice C57BL/6 and Kunming mice for the anti-tumor tests and two groups of mice for negative control.
(3) Sources of tumors: Lewis lung cancer cells and S180 sarcoma in mice, which were sub-cultured and maintained by Pharmacological Center of Shanghai Pharmaceutical Industrial Research Institute.
All samples were weighed and added a small amount of Tween-80 to facilitate dissolution during the experiment, and then 0.5% CMC-Na solution was gradually added to achieve the desired concentration. The volume for experiment was 0.5 ml/20 g mouse.
The medicaments were intraperitoneally administered once a day continuously for 10 days.
For the negative control group, a vehicle of the same volume was intraperitoneally administered once a day continuously for 10 days. For the positive control group, CTX was administered in the dosage of 30 mg/kg once a day continuously for 7 days.
In vivo anti-tumor subcutaneous vaccination in the axilla was employed. Wildly grown tumor source was taken under sterile conditions to form a cell suspension of about 1×10^7 ml by homogenization method. For a corresponding mouse host, the suspension was injected in the axilla in an amount of 0.2 ml/mouse. The next day, the medicaments were administered according to the design of the tests. About three weeks later, all the groups of animals were executed. The tumors were taken from the animals and weighed. The inhibition rate of tumors was calculated according to the following formula:
T: average tumor weight of treated group; C: average tumor weight of negative control group.

HepG2 = assay: In vitro cytotoxicity, IC50 by MTT method, HepG2; format: cell-based, human; conditions: Homo sapiens
Description: as §1, §2, §3, §4, §5

S180 sarcoma = conditions: S180 sarcoma; for Body weight of the animals, beginning, First time / Body weight of the animals, end, First time / Inhibition rate, First time / Weight of the tumor X ± SD, First time: ip × 10qd; for Inhibition rate (%) S180 sarcomata: comparison table 43, in vivo
Bel-7402 = assay: In vitro cytotoxicity, IC50 by MTT method, Bel-7402; format: cell-based; conditions: Homo sapiens, Bel-7402
Description: as §1, §2, §3, §4, §5

Lovo = assay: In vitro cytotoxicity, IC50 by MTT method, Lovo; format: cell-based; conditions: Homo sapiens
Description: as §1, §2, §3, §4, §5

PLA-801 = assay: In vitro cytotoxicity, IC50 by MTT method, PLA-801; format: cell-based
Description: as §1, §2, §3, §4, §5

What does the source list for `COC(=O)c1cc2c([nH]c3ccccc32)c(-c2ccccc2)n1` [Compound 14, methyl 1-phenyl-β-carboline-3-carboxylate]?
IC50 (NIH3T3; NIH3T3, MTT, read-out: IC50): 0.49 mM; IC50 (BGC-823; BGC823, MTT, read-out: IC50): 1.68 mM; IC50 (Hela; Hela, MTT, read-out: IC50): 0.32 mM; Anti-tumor activity compared with harmine (compound 1) (Lewis lung cancer): a little worse than or equivalent to that of harmines; Body weight of the animals, end, First time (Lewis lung cancer; Dosage 50 (mg/ml)): 23.8 g; Body weight of the animals, beginning, First time (Lewis lung cancer; Dosage 50, ip × 10qd): 20.1 g; Inhibition rate, First time (Lewis lung cancer; Dosage 50, ip × 10qd): 27.57%; Weight of the tumor X ± SD, First time (Lewis lung cancer; Dosage 50, ip × 10qd): 1.76 ± 0.25 g; Body weight of the animals, end, First time (Lewis lung cancer; Dosage 100 (mg/ml)): 23.1 g; Body weight of the animals, beginning, First time (Lewis lung cancer; Dosage 100, ip × 10qd): 20.7 g; Inhibition rate, First time (Lewis lung cancer; Dosage 100, ip × 10qd): 34.16%; Weight of the tumor X ± SD, First time (Lewis lung cancer; Dosage 100, ip × 10qd): 1.60 ± 0.19 g; Inhibition rate (%) Lewis cancer (Lewis lung cancer): 32.06%; IC50 (HepG2; HepG2, MTT, read-out: IC50): 1.18 mM; Body weight of the animals, beginning, First time (S180 sarcoma; Dosage 50 (mg/ml)): 19.8 g; Body weight of the animals, end, First time (S180 sarcoma; Dosage 50 (mg/ml)): 26.7 g; Inhibition rate, First time (S180 sarcoma; Dosage 50 (mg/ml)): 24.43%; Weight of the tumor X ± SD, First time (S180 sarcoma; Dosage 50 (mg/ml)): 1.98 ± 0.28 g; Body weight of the animals, beginning, First time (S180 sarcoma; Dosage 100 (mg/ml)): 19.9 g; Body weight of the animals, end, First time (S180 sarcoma; Dosage 100 (mg/ml)): 25.5 g; Inhibition rate, First time (S180 sarcoma; Dosage 100 (mg/ml)): 32.06%; Weight of the tumor X ± SD, First time (S180 sarcoma; Dosage 100 (mg/ml)): 1.78 ± 0.20 g; Inhibition rate (%) S180 sarcomata (S180 sarcoma): 34.16%; IC50 (Bel-7402; BeI7402, MTT, read-out: IC50): > 5 mM; IC50 (Lovo; Lovo, MTT, read-out: IC50): 2.48 mM; IC50 (PLA-801; PLA-801, MTT, read-out: IC50): 1.9 mM

What does the source list for `CCOC(=O)c1cc2c(cn1)[nH]c1ccccc12` [Compound 10, ethyl β-carboline-3-carboxylate]?
IC50 (NIH3T3; NIH3T3): 0.08 mM; IC50 (BGC-823): 1.28 mM; IC50 (Hela; HeLa): 0.06 mM; Body weight of the animals, beginning, First time (Lewis lung cancer; Dosage 50, ip × 10qd): 20.1 g; Inhibition rate, First time (Lewis lung cancer; Dosage 50, ip × 10qd): 32.92%; Weight of the tumor X ± SD, First time (Lewis lung cancer; Dosage 50, ip × 10qd): 1.63 ± 0.16 g; Body weight of the animals, end, First time (Lewis lung cancer; Dosage 100 (mg/ml)): 23.6 g; Body weight of the animals, beginning, First time (Lewis lung cancer; Dosage 100, ip × 10qd): 20.3 g; Inhibition rate, First time (Lewis lung cancer; Dosage 100, ip × 10qd): 41.98%; Weight of the tumor X ± SD, First time (Lewis lung cancer; Dosage 100, ip × 10qd): 1.41 ± 0.21 g; Inhibition rate (%) Lewis cancer (Lewis lung cancer): 41.98%; IC50 (HepG2; HepG2): 1.25 mM; Body weight of the animals, beginning, First time (S180 sarcoma; Dosage 50 (mg/ml)): 20.0 g; Body weight of the animals, end, First time (S180 sarcoma; Dosage 50 (mg/ml)): 26.4 g; Inhibition rate, First time (S180 sarcoma; Dosage 50 (mg/ml)): 30.92%; Weight of the tumor X ± SD, First time (S180 sarcoma; Dosage 50 (mg/ml)): 1.81 ± 0.20 g; Body weight of the animals, beginning, First time (S180 sarcoma; Dosage 100 (mg/ml)): 20.1 g; Body weight of the animals, end, First time (S180 sarcoma; Dosage 100 (mg/ml)): 25.5 g; Inhibition rate, First time (S180 sarcoma; Dosage 100 (mg/ml)): 40.46%; Weight of the tumor X ± SD, First time (S180 sarcoma; Dosage 100 (mg/ml)): 1.56 ± 0.17 g; Inhibition rate (%) S180 sarcomata (S180 sarcoma): 40.46%; IC50 (Bel-7402): 2.91 mM; IC50 (Lovo; LoVo): 1.01 mM; IC50 (PLA-801): 0.28 mM

Which results are given for `COC(=O)c1cc2c([nH]c3ccccc32)c(-c2ccc(OC)cc2)n1` [Compound 15, methyl 1-(4-methoxyphenyl)-β-carboline-3-carboxylate]?
IC50 (NIH3T3; NIH3T3, MTT, read-out: IC50): > 3 mM; IC50 (BGC-823; BGC823, MTT, read-out: IC50): > 3 mM; IC50 (Hela; Hela, MTT, read-out: IC50): > 3 mM; Anti-tumor activity compared with harmine (compound 1) (Lewis lung cancer): a little worse than or equivalent to that of harmines; Body weight of the animals, end, First time (Lewis lung cancer; Dosage 50 (mg/ml)): 23.9 g; Body weight of the animals, beginning, First time (Lewis lung cancer; Dosage 50, ip × 10qd): 20.4 g; Inhibition rate, First time (Lewis lung cancer; Dosage 50, ip × 10qd): 25.51%; Weight of the tumor X ± SD, First time (Lewis lung cancer; Dosage 50, ip × 10qd): 1.81 ± 0.28 g; Body weight of the animals, end, First time (Lewis lung cancer; Dosage 100 (mg/ml)): 24.0 g; Body weight of the animals, beginning, First time (Lewis lung cancer; Dosage 100, ip × 10qd): 20.3 g; Inhibition rate, First time (Lewis lung cancer; Dosage 100, ip × 10qd): 32.10%; Weight of the tumor X ± SD, First time (Lewis lung cancer; Dosage 100, ip × 10qd): 1.65 ± 0.17 g; Inhibition rate (%) Lewis cancer (Lewis lung cancer): 35.50%; IC50 (HepG2; HepG2, MTT, read-out: IC50): > 3 mM; Body weight of the animals, beginning, First time (S180 sarcoma; Dosage 50 (mg/ml)): 19.8 g; Body weight of the animals, end, First time (S180 sarcoma; Dosage 50 (mg/ml)): 26.4 g; Inhibition rate, First time (S180 sarcoma; Dosage 50 (mg/ml)): 23.66%; Weight of the tumor X ± SD, First time (S180 sarcoma; Dosage 50 (mg/ml)): 2.00 ± 0.16 g; Body weight of the animals, beginning, First time (S180 sarcoma; Dosage 100 (mg/ml)): 19.9 g; Body weight of the animals, end, First time (S180 sarcoma; Dosage 100 (mg/ml)): 26.0 g; Inhibition rate, First time (S180 sarcoma; Dosage 100 (mg/ml)): 35.50%; Weight of the tumor X ± SD, First time (S180 sarcoma; Dosage 100 (mg/ml)): 1.69 ± 0.16 g; Inhibition rate (%) S180 sarcomata (S180 sarcoma): 32.10%; IC50 (Bel-7402; BeI7402, MTT, read-out: IC50): > 3 mM; IC50 (Lovo; Lovo, MTT, read-out: IC50): > 3 mM; IC50 (PLA-801; PLA-801, MTT, read-out: IC50): > 3 mM
